In assay [1] the test system is KRAS G12D mutant human gastric cancer cell AGS. In words: 3D cell proliferation inhibition assay, AGS. Type of assay: cell-based. The note with it: 168 h, 7 days, CTG, numeric values. An excerpt: The inhibitory effects of the compounds on 3D cell proliferation were investigated on KRAS G12D mutant human lung cancer cell A427, KRAS G12D mutant human gastric cancer cell AGS, KRAS G12D mutant human metastatic pancreatic cancer cell AsPc-1, KRAS G12D mutant human pancreatic cancer cell Panc 04.03, KRAS G12D mutant human pancreatic cancer cell HPAC, KRAS G12V mutant human lung squamous cell carcinoma cell SW900, and KRAS WT human gastric cancer cell MKN1. The specific procedures were as follows:
10 μL of each compound solution diluted in a gradient was added to corresponding wells of a 96-well low-adsorption microplate (PerkinElmer), so that the final concentrations of the test compounds in the reaction system were in a range of 10000-0.026 nM. The final concentration of DMSO was 0.2%. Then 90 µL of cells were correspondingly seeded into each well to achieve a cell density of 5×10^2 cells/well (the cell density of SW900 was 5×10^1 cells/well, and the cell density of MKN1 was 1×10^3 cells/well). In addition to test wells for the test compounds, both a DMSO control well and a medium control well were set, with the DMSO control well containing DMSO and cells and the medium well containing only a medium. After the sample loading, the 96-well low-adsorption microplate was incubated in an incubator at 37° C. with 5% carbon dioxide for 7 days. After 7 days, the microplate was taken out, and 100 μL of CTG reagent (Promega) was added to each well. The plate was incubated at room temperature for 60 min and read on a microplate reader EnVision by the chemiluminescence program. The inhibition rates of the compounds at each concentration were calculated using the formula for the percentage inhibition of cell proliferation: inhibition rate %=(mean value of DMSO control group−single concentration reading value of compound)/(mean value of DMSO control group−mean value of medium control group)×100. Then non-linear curve fittings for logarithmic concentration-inhibition rate were performed by GraphPad Prism 8, and the IC50 values of the compounds were obtained (Table 5).

The target of a further assay is T1, KRAS-G12D (Homo sapiens, UniProt P01116, G12D).
T1 construct: endogenous in cells; host or cells: A-427 (ATCC), AGS, AsPc-1, Panc 04.03
Nature of the assay: KRAS-G12D degradation assay (Western Blot), A-427 cells. It counts as cell-based. The note with it: A427 cells, 24 h; for Dmax: A-427. As to the method: The degradation effects of the compounds on KRAS-G12D were investigated on KRAS G12D mutant human lung cancer cell A-427 (ATCC), KRAS G12D mutant human gastric cancer cell AGS, KRAS G12D mutant human metastatic pancreatic cancer cell AsPc-1, and KRAS G12D mutant human pancreatic adenocarcinoma cell Panc 04.03. The specific procedures were as follows: 0.95 mL of cells were seeded into each well of a 24-well cell culture plate to achieve a cell density of 5×10^5 cells/well; and the cell plate was incubated in an incubator at 37° C. with 5% CO2 overnight. Then 50 μL of the compound solution after dilution was added to each of the wells with the corresponding cells, so that the final concentration of the compound was in a range of 0.03-3000 nM. The final concentration of DMSO was 0.25%. After the compounds were added, the cell plate was incubated in the incubator at 37° C. with 5% CO2 for 24 h. The culture medium in the 24-well cell culture plate was removed, and the plate was washed twice with 1×PBS (KeyGEN). 120 μL of RIPA (strong) lysis buffer (Beyotime) supplemented with 1 mM phenylmethylsulfonyl fluoride, a protease inhibitor mixture (Beyotime), and a protease phosphatase inhibitor mixture (Beyotime) was added to lyse adherent A-427 cells at the bottom of the cell culture plate. After the plate was left to stand on ice for 30 min, the protein lysate in each well was transferred to a 1.5 mL centrifuge tube and centrifuged at 15000 g for 20 min at 4° C. The cell lysate supernatants after centrifugation were cryopreserved in a refrigerator at −80° C. for later use.
After the samples of the cell lysate supernatants that had been prepared were thawed from the refrigerator at −80° C., the total protein concentrations of the cell lysates were determined using a BCA protein quantification kit (Tiangen). The total protein concentrations of the samples were then adjusted to 0.5 μg/μL with PBS and 5×SDS-PAGE protein loading buffer (Beyotime), and the samples were incubated in a water bath at 100° C. for 15 min. The samples were then incubated in an ice bath for 5 min and centrifuged at 14000 g for 1 min at 4° C., and the supernatants were mixed well as loading samples for the Western Blot assay. The samples were loaded into wells of a 10% precast gel (KeyGEN) with a loading volume of 10 μL (total protein: 5 μg), a sufficient Tris-MOPS-SDS running buffer (Adamas) was added, and then electrophoresis was performed at a constant voltage of 120 V for 55 min. After the electrophoresis, the proteins on the gel were transferred to PVDF membranes at a constant current of 250 mA for 55 min. After the membrane transfer, the PVDF membranes were incubated in 1× Quick Block blocking buffer (Beyotime) at room temperature for 30 min. After the blocking, the PVDF membranes were separately incubated at 4° C. overnight with the KRAS antibody (Abcam) diluted in a ratio of 1:1000 and the […] antibody (Abcam) diluted in a ratio of 1:2000 in 5% BSA as the diluent, and then washed with 1×TBST buffer (2.4 g of Tris, 8.8 g of NaCl, 1.5 mL of Tween 20, with pH adjusted to 7.4, with the volume brought to 1 L) 3 times for 10 min/time. The membranes were incubated with a secondary antibody (Abcam) diluted in 5% BSA at room temperature for 2 h, and then washed with 1×TBST buffer 3 times for 10 min/time. Finally, the membranes were incubated with Clarity Western ECL Substrate (BIO-RAD) for 5 min for luminescence and color development, and a ChemiScope 6200 Touch chemiluminescence imaging system (Clinx) was used for color development and protein mapping. Gray value analysis of the protein maps was performed using the chemiluminescence analysis software (Clinx). The gray correction value for each sample was calculated using the formula: gray correction value=(gray value of target protein/gray value of corresponding internal reference)×10^3. Then degradation rates were calculated by comparison with the gray correction value of the control group. […]

Each structure is given as a SMILES string. pIC50: −log10 of the molar value.

T1 sequence (P01116 1-188 isoform P01116-2 G12D): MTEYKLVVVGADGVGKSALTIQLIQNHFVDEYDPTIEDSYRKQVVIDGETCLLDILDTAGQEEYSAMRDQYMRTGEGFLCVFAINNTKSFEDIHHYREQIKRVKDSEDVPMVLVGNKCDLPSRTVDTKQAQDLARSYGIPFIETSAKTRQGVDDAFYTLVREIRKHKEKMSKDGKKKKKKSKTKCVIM

As to `C#Cc1c(F)ccc2cc(O)cc(-c3ncc4c(N5CC6CCC(C5)N6)nc(OCC5CCN(CCCC6CCC7(CC6)CCN(C(=O)c6ccc(Cl)c(N8CCC(=O)NC8=O)c6)CC7)CC5)nc4c3F)c12` [Example 68, 1-(5-(9-(3-(4-(((4-(3,8-diazabicyclo[3.2.1]octan-3-yl)-7-(8-ethynyl-7-fluoro-3-hydroxynaphthalen-1-yl)-8-fluoropyrido[4,3-d]pyrimidin-2-yl)oxy)methyl)piperidin-1-yl)propyl)-3-azaspiro[5.5]undecane-3-carbonyl)-2-chlorophenyl)dihydropyrimidine-2,4(1H,3H)-dione], in assay [1], the negative-log IC50 (pIC50) is 7.61.

In the case of `C#Cc1c(F)ccc2cc(O)cc(-c3ncc4c(N5CC6CCC(C5)N6)nc(NCC5(CN6CCN(CC7CCC8(CC7)CCN(C(=O)c7ccc(Cl)c(N9CCC(=O)NC9=O)c7)CC8)CC6)CC5)nc4c3F)c12` [Example 46, 1-(5-(9-((4-((1-(((4-(3,8-diazabicyclo[3.2.1]octan-3-yl)-7-(8-ethynyl-7-fluoro-3-hydroxynaphthalen-1-yl)-8-fluoropyrido[4,3-d]pyrimidin-2-yl)amino)methyl)cyclopropyl)methyl)piperazin-1-yl)methyl)-3-azaspiro[5.5]undecane-3-carbonyl)-2-chlorophenyl)dihydropyrimidine-2,4(1H,3H)-dione], at KRAS-G12D (class symbols), the half-maximal degradation concentration (DC50) is at most 50 nM and the maximal degradation (Dmax) is 80 to 100%. Compound `C#Cc1c(F)ccc2cc(O)cc(-c3ncc4c(N5CC6CCC(C5)N6)nc(OCC5(CN6CC7CC(C6)N7CC6CCC7(CC6)CCN(C(=O)c6ccc(Cl)c(N8CCC(=O)NC8=O)c6)CC7)CC5)nc4c3F)c12` [Example 87, 1-(5-(9-((3-((1-(((4-(3,8-diazabicyclo[3.2.1]octan-3-yl)-7-(8-ethynyl-7-fluoro-3-hydroxynaphthalen-1-yl)-8-fluoropyrido[4,3-d]pyrimidin-2-yl)oxy)methyl)cyclopropyl)methyl)-3,6-diazabicyclo[3.1.1]heptan-6-yl)methyl)-3-azaspiro[5.5]undecane-3-carbonyl)-2-chlorophenyl)dihydropyrimidine-2,4(1H,3H)-dione] had a pIC50 in assay [1] of 6.22. Regarding `C#Cc1c(F)ccc2cc(O)cc(-c3ncc4c(N5CC6CCC(C5)N6)nc(OCC5(CN6CC(CCN7CCC8(CC7)CCN(C(=O)c7ccc(OC)c(N9CCC(=O)NC9=O)c7)CC8)C6)CC5)nc4c3F)c12` [Example 41, 1-(5-(9-(2-(1-((1-(((4-(3,8-diazabicyclo[3.2.1]octan-3-yl)-7-(8-ethynyl-7-fluoro-3-hydroxynaphthalen-1-yl)-8-fluoropyrido[4,3-d]pyrimidin-2-yl)oxy)methyl)cyclopropyl)methyl)azetidin-3-yl)ethyl)-3,9-diazaspiro[5.5]undecane-3-carbonyl)-2-methoxyphenyl)dihydropyrimidine-2,4(1H,3H)-dione], the half-maximal degradation concentration (DC50) on KRAS-G12D (class symbols) fell in the range of 1000 to 10000 nM.

At KRAS-G12D (class symbols), `C#Cc1c(F)ccc2cc(O)cc(-c3ncc4c(N5CC6CCC(C5)N6)nc(OCC5(CN6CCN(CCC7CC8(CCN(C(=O)c9ccc(OC)c(N%10CCC(=O)NC%10=O)c9)CC8)C7)CC6)CC5)nc4c3F)c12` [Example 43, 1-(5-(2-(2-(4-((1-(((4-(3,8-diazabicyclo[3.2.1]octan-3-yl)-7-(8-ethynyl-7-fluoro-3-hydroxynaphthalen-1-yl)-8-fluoropyrido[4,3-d]pyrimidin-2-yl)oxy)methyl)cyclopropyl)methyl)piperazin-1-yl)ethyl)-7-azaspiro[3.5]nonane-7-carbonyl)-2-methoxyphenyl)dihydropyrimidine-2,4(1H,3H)-dione] showed a DC50 of at most 50 nM and a Dmax of 50 to 80%. As for `CCc1cccc2cc(O)cc(-c3ncc4c(N5CCC6CCC(C5)N6)nc(OCC5(CN6CCN(CC7CCC8(CC7)CCN(C(=O)c7ccc(OC)c(N9CCC(=O)NC9=O)c7)CC8)CC6)CC5)nc4c3F)c12` (stereo not drawn) [Example 88, 1-(5-(9-((4-((1-(((4-(3,9-diazabicyclo[4.2.1]nonan-3-yl)-7-(8-ethyl-3-hydroxynaphthalen-1-yl)-8-fluoropyrido[4,3-d]pyrimidin-2-yl)oxy)methyl)cyclopropyl)methyl)piperazin-1-yl)methyl)-3-azaspiro[5.5]undecane-3-carbonyl)-2-methoxyphenyl)dihydropyrimidine-2,4(1H,3H)-dione], on KRAS-G12D (numeric values), half-maximal degradation (DC50) was put at 0.65 nM and the Dmax is 89.5%. In the same order, the values of `CCc1cccc2cc(O)cc(-c3ccc4c(N5CC6CCC(C5)N6)nc(OCC5(CN6CCN(CC7CCC8(CC7)CCN(C(=O)c7ccc(OC)c(N9CCC(=O)NC9=O)c7)CC8)CC6)CC5)nc4c3F)c12` [Example 83, 1-(5-(9-((4-((1-(((4-(3,8-diazabicyclo[3.2.1]octan-3-yl)-7-(8-ethyl-3-hydroxynaphthalen-1-yl)-8-fluoroquinazolin-2-yl)oxy)methyl)cyclopropyl)methyl)piperazin-1-yl)methyl)-3-azaspiro[5.5]undecane-3-carbonyl)-2-methoxyphenyl)dihydropyrimidine-2,4(1H,3H)-dione] are 33.9 nM and 87.2%.

On to `C#Cc1c(F)ccc2cc(O)cc(-c3ncc4c(N5C[C@@H]6C[C@H]5CN6)nc(OCC5(CN6CCN(CC7CCC8(CC7)CCN(C(=O)c7ccc(C)c(N9CCC(=O)NC9=O)c7)CC8)CC6)CC5)nc4c3F)c12` [Example 86, 1-(5-(9-((4-((1-(((4-((1S,4S)-2,5-diazabicyclo[2.2.1]heptan-2-yl)-7-(8-ethynyl-7-fluoro-3-hydroxynaphthalen-1-yl)-8-fluoropyrido[4,3-d]pyrimidin-2-yl)oxy)methyl)cyclopropyl)methyl)piperazin-1-yl)methyl)-3-azaspiro[5.5]undecane-3-carbonyl)-2-methylphenyl)dihydropyrimidine-2,4(1H,3H)-dione], for which the negative logarithm of the IC50 (pIC50) in assay [1] is 7.01.

The record behind these values is patent US20260166159A1, “KRAS G12D DEGRADATION AGENT, AND PREPARATION METHOD AND USE THEREFOR” (LEADINGTAC PHARMACEUTICAL (SHAOXING) CO., LTD., priority 2022, published 2026).
